Measurements from patent US10597388B2, “Pyridazinone herbicides” (FMC CORPORATION, priority 2014, dated 2020).

Assays:
Test in all cases: Test D controlled growth environment herbicide test, pre- and postemergence
Assay type in all cases: in vivo
[1] = system: barley, spring (spring barley, Hordeum vulgare)
Excerpt: (§1) Seeds of plant species selected from bluegrass (annual bluegrass, Poa annua), blackgrass (Alopecurus myosuroides), Canada thistle (Cirsium arvense), canarygrass (Phalaris minor), chickweed (common chickweed, Stellaria media), geranium, cutleaf (cutleaf geranium, Geranium dissectum), galium (catchweed bedstraw, Galium aparine), bromegrass, downy (downy bromegrass, Bromus tectorum), field poppy (Papaver rhoeas), field violet (Viola arvensis), foxtail, green (green foxtail, Setaria viridis), deadnettle (henbit deadnettle, Lamium amplexicaule), ryegrass, Italian (Italian ryegrass, Lolium multiflorum), kochia (Kochia scoparia), lambsquarters (Chenopodium album), oilseed rape (Brassica napus), pigweed (Amaranthus retroflexus), chamomile (scentless chamomile, Matricaria inodora), Russian thistle (Salsola kali), speedwell (bird's-eye speedwell, Veronica persica), barley, spring (spring barley, Hordeum vulgare), wheat, spring (spring wheat, Triticum aestivum), buckwheat, wild (wild buckwheat, Polygonum convolvulus), mustard, wild (wild mustard, Sinapis arvensis), oat, wild (wild oat, Avena fatua), radish, wild (wild radish, Raphanus raphanistrum), windgrass (Apera spica-venti), barley, winter (winter barley, Hordeum vulgare), and wheat, winter (winter wheat, Triticum aestivum) were planted into a silt loam soil and treated preemergence with test chemicals formulated in a non-phytotoxic solvent mixture which included a surfactant.
(§2) At the same time, these species were planted in pots containing Redi-Earth® planting medium (Scotts Company, 14111 Scottslawn Road, Marysville, Ohio 43041) comprising spaghnum peat moss, vermiculite, wetting agent and starter nutrients and treated with postemergence applications of the test chemicals formulated in the same manner. Plants ranged in height from 2 to 18 cm (1- to 4-leaf stage). Treated plants and controls were maintained in a controlled growth environment for 14 to 21 d after which time all species were compared to controls and visually evaluated. Plant response ratings, summarized in Table D, are based on a scale of 0 to 100 where 0 is no effect and 100 is complete control. A dash (-) response means no test result.

[2] = system: barley, winter (winter barley, Hordeum vulgare)
Excerpt: as §1, §2

[3] = system: bluegrass (annual bluegrass, Poa annua)
Excerpt: as §1, §2

[4] = system: canarygrass (Phalaris minor)
Excerpt: as §1, §2

[5] = system: chickweed (common chickweed, Stellaria media)
Excerpt: as §1, §2

[6] = system: deadnettle (henbit deadnettle, Lamium amplexicaule)
Excerpt: as §1, §2

[7] = system: field poppy (Papaver rhoeas)
Excerpt: as §1, §2

[8] = system: foxtail, green (green foxtail, Setaria viridis)
Excerpt: as §1, §2

[9] = system: mustard, wild (wild mustard, Sinapis arvensis)
Excerpt: as §1, §2

[10] = system: radish, wild (wild radish, Raphanus raphanistrum)
Excerpt: as §1, §2

[11] = system: ryegrass, Italian (Italian ryegrass, Lolium multiflorum)
Excerpt: as §1, §2

[12] = system: wheat, winter (winter wheat, Triticum aestivum)
Excerpt: as §1, §2

[13] = system: windgrass (Apera spica-venti)
Excerpt: as §1, §2

[14] = Postemergence, 31 g ai/ha, scale 0 to 100 (0 no effect, 100 complete control)
[15] = Postemergence, 125 g ai/ha, visual rating on scale 0 (no effect) to 100 (complete control), 14 to 21 d
[16] = Postemergence, 250 g ai/ha, scale 0 to 100 (0 no effect, 100 complete control)
[17] = Preemergence, 62 g ai/ha, scale 0 to 100 (0 no effect, 100 complete control)
[18] = Preemergence, 125 g ai/ha, scale 0 to 100 (0 no effect, 100 complete control)
[19] = Preemergence, 250 g ai/ha, scale 0 to 100 (0 no effect, 100 complete control)
[20] = postemergence, 62 g ai/ha, scale 0 to 100, 0 no effect, 100 complete control

CC(=O)Oc1c(C)nn(C)c(=O)c1-c1c(C)cc(C)c2ccccc12 [Compound 153]
Barley, Spring plant response rating [1, 14]: 5 | Plant response rating, Barley, Spring [1, 15]: 15 | Plant response rating, Barley, Spring [1, 16]: 30 | Plant response rating (scale of 0 to 100), Barley, Spring ([1]; Preemergence, 31 g ai/ha): 0 | Plant response rating, Barley, Spring [1, 17]: 0 | Plant response rating, Barley, Spring [1, 18]: 25 | Plant response rating, Barley, Spring [1, 19]: 40 | Plant response rating, Barley, Spring [1, 20]: 5 | Barley, Winter plant response rating [2, 14]: 0 | Plant response rating, Barley, Winter [2, 15]: 10 | Plant response rating, Barley, Winter [2, 16]: 25 | Plant response rating (scale of 0 to 100), Barley, Winter ([2]; Preemergence, 31 g ai/ha): 0 | Plant response rating, Barley, Winter [2, 17]: 10 | Plant response rating, Barley, Winter [2, 18]: 25 | Plant response rating, Barley, Winter [2, 19]: 40 | Plant response rating, Barley, Winter [2, 20]: 5 | Bluegrass plant response rating [3, 14]: 15 | Plant response rating, Bluegrass [3, 15]: 30 | Plant response rating, Bluegrass [3, 16]: 40 | Plant response rating (scale of 0 to 100), Bluegrass ([3]; Preemergence, 31 g ai/ha): 70 | Plant response rating, Bluegrass [3, 17]: 75 | Plant response rating, Bluegrass [3, 18]: 75 | Plant response rating, Bluegrass [3, 19]: 75 | Plant response rating, Bluegrass [3, 20]: 15 | Canarygrass plant response rating [4, 14]: 75 | Plant response rating, Canarygrass [4, 15]: 80 | Plant response rating, Canarygrass [4, 16]: 85 | Plant response rating (scale of 0 to 100), Canarygrass ([4]; Preemergence, 31 g ai/ha): 85 | Plant response rating (scale of 0 to 100), Canarygrass ([4]; Preemergence, 62 g ai/ha): 90 | Plant response rating, Canarygrass [4, 18]: 95 | Plant response rating, Canarygrass [4, 19]: 100 | Plant response rating, Canarygrass [4, 20]: 75 | Chickweed plant response rating [5, 14]: 80 | Plant response rating, Chickweed [5, 15]: 85 | Plant response rating, Chickweed [5, 16]: 100 | Plant response rating (scale of 0 to 100), Chickweed ([5]; Preemergence, 31 g ai/ha): 98 | Plant response rating (scale of 0 to 100), Chickweed ([5]; Preemergence, 62 g ai/ha): 100 | Plant response rating, Chickweed [5, 18]: 100 | Plant response rating, Chickweed [5, 19]: 100 | Plant response rating, Chickweed [5, 20]: 85 | Deadnettle plant response rating [6, 14]: 70 | Plant response rating, Deadnettle [6, 15]: 80 | Plant response rating, Deadnettle [6, 16]: 90 | Plant response rating (scale of 0 to 100), Deadnettle ([6]; Preemergence, 31 g ai/ha): 98 | Plant response rating (scale of 0 to 100), Deadnettle ([6]; Preemergence, 62 g ai/ha): 100 | Plant response rating, Deadnettle [6, 18]: 100 | Plant response rating, Deadnettle [6, 19]: 100 | Plant response rating, Deadnettle [6, 20]: 75 | Field Poppy plant response rating [7, 14]: 75 | Plant response rating, Field Poppy [7, 15]: 100 | Plant response rating, Field Poppy [7, 16]: 100 | Plant response rating (scale of 0 to 100), Field Poppy ([7]; Preemergence, 31 g ai/ha): 100 | Plant response rating (scale of 0 to 100), Field Poppy ([7]; Preemergence, 62 g ai/ha): 100 | Plant response rating, Field Poppy [7, 18]: 100 | Plant response rating, Field Poppy [7, 19]: 100 | Plant response rating, Field Poppy [7, 20]: 95 | Foxtail, Green plant response rating [8, 14]: 80 | Plant response rating, Foxtail, Green [8, 15]: 85 | Plant response rating, Foxtail, Green [8, 16]: 85 | Plant response rating (scale of 0 to 100), Foxtail, Green ([8]; Preemergence, 31 g ai/ha): 75 | Plant response rating (scale of 0 to 100), Foxtail, Green ([8]; Preemergence, 62 g ai/ha): 75 | Plant response rating, Foxtail, Green [8, 18]: 100 | Plant response rating, Foxtail, Green [8, 19]: 100 | Plant response rating, Foxtail, Green [8, 20]: 80 | Mustard, Wild plant response rating [9, 14]: 98 | Plant response rating, Mustard, Wild [9, 15]: 100 | Plant response rating, Mustard, Wild [9, 16]: 100 | Plant response rating (scale of 0 to 100), Mustard, Wild ([9]; Preemergence, 31 g ai/ha): 100 | Plant response rating (scale of 0 to 100), Mustard, Wild ([9]; Preemergence, 62 g ai/ha): 100 | Plant response rating, Mustard, Wild [9, 18]: 100 | Plant response rating, Mustard, Wild [9, 19]: 100 | Plant response rating, Mustard, Wild [9, 20]: 98 | Radish, Wild plant response rating [10, 14]: 80 | Plant response rating, Radish, Wild [10, 15]: 100 | Plant response rating, Radish, Wild [10, 16]: 100 | Plant response rating (scale of 0 to 100), Radish, Wild ([10]; Preemergence, 31 g ai/ha): 80 | Plant response rating (scale of 0 to 100), Radish, Wild ([10]; Preemergence, 62 g ai/ha): 98 | Plant response rating, Radish, Wild [10, 18]: 98 | Plant response rating, Radish, Wild [10, 19]: 100 | Plant response rating, Radish, Wild [10, 20]: 85 | Ryegrass, Italian plant response rating [11, 14]: 80 | Plant response rating, Ryegrass, Italian [11, 15]: 90 | Plant response rating, Ryegrass, Italian [11, 16]: 90 | Plant response rating (scale of 0 to 100), Ryegrass, Italian ([11]; Preemergence, 31 g ai/ha): 100 | Plant response rating (scale of 0 to 100), Ryegrass, Italian ([11]; Preemergence, 62 g ai/ha): 100 | Plant response rating, Ryegrass, Italian [11, 18]: 100 | Plant response rating, Ryegrass, Italian [11, 19]: 100 | Plant response rating, Ryegrass, Italian [11, 20]: 90 | Wheat, Winter plant response rating [12, 14]: 10 | Plant response rating, Wheat, Winter [12, 15]: 25 | Plant response rating, Wheat, Winter [12, 16]: 35 | Plant response rating (scale of 0 to 100), Wheat, Winter ([12]; Preemergence, 31 g ai/ha): 5 | Plant response rating (scale of 0 to 100), Wheat, Winter ([12]; Preemergence, 62 g ai/ha): 20 | Plant response rating, Wheat, Winter [12, 18]: 45 | Plant response rating, Wheat, Winter [12, 19]: 50 | Plant response rating, Wheat, Winter [12, 20]: 15 | Windgrass plant response rating [13, 14]: 25 | Plant response rating, Windgrass [13, 15]: 65 | Plant response rating, Windgrass [13, 16]: 75 | Plant response rating (scale of 0 to 100), Windgrass ([13]; Preemergence, 31 g ai/ha): 75 | Plant response rating (scale of 0 to 100), Windgrass ([13]; Preemergence, 62 g ai/ha): 80 | Plant response rating, Windgrass [13, 18]: 80 | Plant response rating, Windgrass [13, 19]: 95 | Plant response rating, Windgrass [13, 20]: 30
